Reference: patent publication US6875451B2, “Compositions and methods for the treatment of primary and metastatic neoplastic diseases using arsenic compounds” (PolaRx Biopharmaceuticals Inc., priority 1997, dated 2005)

Experiments:
Type in all cases: cell-based
LOX IMVI = assay: SRB growth assay, 6 days exposure, melanoma; details: LOX 1MVI
Protocol: (§1) Arsenic trioxide (1 mg/ml, 10 mg/ampoule, manufactured by Taylor Pharmaceuticals, Decatur, Ill.) was tested at five concentrations each at 10-fold dilutions, i.e., 10^−5, 10^−6, 10^−7, 10^−8 and 10^−9 μg/ml.
(§2) The in vitro tests were performed by incubating the test cells in the presence of the indicated concentration of arsenic trioxide under standard culture conditions for a designated period of time, which is followed by a sulforhodamine B (SRB) protein assay to estimate cell viability or growth. The cell lines are organized into subpanels according to the origin of the cell lines, e.g., leukemia, breast cancer, etc. A description of the cell lines and method of testing is described in Monk et al. (1997, Anticancer Drug Des. 12:533-41) and Weinstein et al., (1997, Science 275:343-9), which are incorporated herein in their entirety.
(§3) The measurement of an effect is expressed in Percentage Growth (PG). The measured effect of the compound on a cell line is calculated according to one or the other of the following two expressions: If (Mean ODtest−Mean ODzero)≧0. then PG=100×(Mean ODtest−Mean ODzero)/(Mean ODctrl−Mean ODzero) If (Mean ODtest−Mean ODzero)<0. then PG=100×(Mean ODtest−Mean ODzero)/(Mean ODzero where: • Mean ODzero=the average of optical density measurements of SRB-derived color just before exposure of cells to the test compounds; • Mean ODtest=the average of optical density measurements of SRB-derived color after exposure of cells to the test compound for a designated period of time; and • Mean ODctrl=the average of optical density measurements of SRB-derived color after with no exposure of cells to the test compound for a designated period of time
(§4) The first two columns describe the subpanel (e.g., leukemia) and cell line (e.g., CCRF-CEM) involved. The next two columns list the Mean ODzero and Mean ODctrl; the next five columns list the Mean ODtest for each of five different concentrations. Each concentration is expressed as the log10 (molar or μg/ml). The next five columns list the calculated PGs for each concentration. The response parameters GI50, TGI and LC50 are interpolated values representing the concentrations at which the PG is +50, 0, and −50, respectively. Sometimes these response parameters cannot be obtained by interpolation. If, for instance, all of the PGs in a given row exceed +50, then none of the three parameters can be obtained by interpolation. In such a case, the value given for each response parameter is the highest concentration tested and is preceded by a “>” sign. This practice is extended similarly to the other possible situations where a response parameter cannot be obtained by interpolation.
(§5) In the first set, the cells from 56 different cancer cell lines were exposed to five concentrations of arsenic trioxide continuously for two days prior to performing the SRB assay. In the second set, the cells from 50 different cell lines (a subset of the first 56 cell lines, plus the renal cancer cell line 786-0) were exposed continuously for six days prior to the SRB assay.

MALMI-3M = assay: SRB growth assay, 6 days exposure, melanoma
Protocol: as §1, §2, §3, §4, §5

SK-MEL-5 = assay: SRB growth assay, 6 days exposure, melanoma; details: SK-MEL-5, 6 days
Protocol: as §1, §2, §3, §4, §5

BR-549 = assay: SRB growth assay, 6 days exposure, breast cancer; details: BT-549, 6 days
Protocol: as §1, §2, §3, §4, §5

HS 578T = assay: SRB growth assay, 6 days exposure, breast cancer
Protocol: as §1, §2, §3, §4, §5

MCF7 = assay: SRB growth assay, 6 days exposure, breast cancer; details: MCF7, 6 days
Protocol: as §1, §2, §3, §4, §5

MDA-MB-435 = assay: SRB growth assay, 6 days exposure, breast cancer; details: MDA-MB-435, 6 days
Protocol: as §1, §2, §3, §4, §5

NCI/ADR-RIS = assay: SRB growth assay, 6 days exposure, breast cancer
Protocol: as §1, §2, §3, §4, §5

[1] = read-out: LC50 (the source's name)

For arsenic trioxide, the TGI (LOX IMVI) was 1.32E−07, the “Mean Optical Densities” value (LOX IMVI; Log 10 Concentration −4.9) was −0.001 and the “Percent Growth” value (LOX IMVI; Log 10 Concentration −4.9) was −100%. The “Mean Optical Densities” value (LOX IMVI; Log 10 Concentration −5.9) was 0.002, the “Percent Growth” value (LOX IMVI; Log 10 Concentration −5.9) was −88% and the “Mean Optical Densities” value (LOX IMVI; Log 10 Concentration −6.9) was 0.053. For the same substance, the “Percent Growth” value (LOX IMVI; Log 10 Concentration −6.9) was 2%, the “Mean Optical Densities” value (LOX IMVI; Log 10 Concentration −7.9) was 1.666 and the “Percent Growth” value (LOX IMVI; Log 10 Concentration −7.9) was 77%. For the same substance, the “Mean Optical Densities” value (LOX IMVI; Log 10 Concentration −8.9) was 2.000, the “Percent Growth” value (LOX IMVI; Log 10 Concentration −8.9) was 93% and the TGI (MALMI-3M) was 2.78E−06. For the same substance, the “Mean Optical Densities” value (MALMI-3M; Log 10 Concentration −4.9) was 0.005, the “Percent Growth” value (MALMI-3M; Log 10 Concentration −4.9) was −96% and the “Mean Optical Densities” value (MALMI-3M; Log 10 Concentration −5.9) was 0.383. For the same substance, the “Percent Growth” value (MALMI-3M; Log 10 Concentration −5.9) was 50%, the “Mean Optical Densities” value (MALMI-3M; Log 10 Concentration −6.9) was 0.823 and the “Percent Growth” value (MALMI-3M; Log 10 Concentration −6.9) was 132%. The “Mean Optical Densities” value (MALMI-3M; Log 10 Concentration −7.9) was 0.595, the “Percent Growth” value (MALMI-3M; Log 10 Concentration −7.9) was 90% and the “Mean Optical Densities” value (MALMI-3M; Log 10 Concentration −8.9) was 0.702. The “Percent Growth” value (MALMI-3M; Log 10 Concentration −8.9) was 110%, the TGI (SK-MEL-5) was 4.07E−06 and the “Mean Optical Densities” value (SK-MEL-5; Log 10 Concentration −4.9) was 0.013. The “Percent Growth” value (SK-MEL-5; Log 10 Concentration −4.9) was −93%, the “Mean Optical Densities” value (SK-MEL-5; Log 10 Concentration −5.9) was 1.846 and the “Percent Growth” value (SK-MEL-5; Log 10 Concentration −5.9) was 96%. The “Mean Optical Densities” value (SK-MEL-5; Log 10 Concentration −6.9) was 1.929, the “Percent Growth” value (SK-MEL-5; Log 10 Concentration −6.9) was 101% and the “Mean Optical Densities” value (SK-MEL-5; Log 10 Concentration −7.9) was 1.864. The “Percent Growth” value (SK-MEL-5; Log 10 Concentration −7.9) was 97%, the “Mean Optical Densities” value (SK-MEL-5; Log 10 Concentration −8.9) was 1.935 and the “Percent Growth” value (SK-MEL-5; Log 10 Concentration −8.9) was 102%. For the same substance, the GI50 (BR-549) was 2.22 µM, the TGI (BR-549) was 4.24E−06 and the “Mean Optical Densities” value (BR-549; Log 10 Concentration −4.9) was 0.018. For the same substance, the “Percent Growth” value (BR-549; Log 10 Concentration −4.9) was −84%, the “Mean Optical Densities” value (BR-549; Log 10 Concentration −5.9) was 1.697 and the “Percent Growth” value (BR-549; Log 10 Concentration −5.9) was 94%. For the same substance, the “Mean Optical Densities” value (BR-549; Log 10 Concentration −6.9) was 1.963, the “Percent Growth” value (BR-549; Log 10 Concentration −6.9) was 110% and the “Mean Optical Densities” value (BR-549; Log 10 Concentration −7.9) was 1.940. The “Percent Growth” value (BR-549; Log 10 Concentration −7.9) was 108%, the “Mean Optical Densities” value (BR-549; Log 10 Concentration −8.9) was 1.876 and the “Percent Growth” value (BR-549; Log 10 Concentration −8.9) was 105%. For the same substance, the CC50 (BR-549; [1]) was 8.08 µM, the TGI (HS 578T) was 4.12E−06 and the “Mean Optical Densities” value (HS 578T; Log 10 Concentration −4.9) was 0.010. For the same substance, the “Percent Growth” value (HS 578T; Log 10 Concentration −4.9) was −91%, the “Mean Optical Densities” value (HS 578T; Log 10 Concentration −5.9) was 0.706 and the “Percent Growth” value (HS 578T; Log 10 Concentration −5.9) was 96%. For the same substance, the “Mean Optical Densities” value (HS 578T; Log 10 Concentration −6.9) was 0.890, the “Percent Growth” value (HS 578T; Log 10 Concentration −6.9) was 126% and the “Mean Optical Densities” value (HS 578T; Log 10 Concentration −7.9) was 0.587. The “Percent Growth” value (HS 578T; Log 10 Concentration −7.9) was 77%, the “Mean Optical Densities” value (HS 578T; Log 10 Concentration −8.9) was 0.777 and the “Percent Growth” value (HS 578T; Log 10 Concentration −8.9) was 108%. For the same substance, the TGI (MCF7) was 3.66E−06, the “Mean Optical Densities” value (MCF7; Log 10 Concentration −4.9) was 0.008 and the “Percent Growth” value (MCF7; Log 10 Concentration −4.9) was −73%. For the same substance, the “Mean Optical Densities” value (MCF7; Log 10 Concentration −5.9) was 1.683, the “Percent Growth” value (MCF7; Log 10 Concentration −5.9) was 63% and the “Mean Optical Densities” value (MCF7; Log 10 Concentration −6.9) was 2.603. The “Percent Growth” value (MCF7; Log 10 Concentration −6.9) was 98%, the “Mean Optical Densities” value (MCF7; Log 10 Concentration −7.9) was 2.611 and the “Percent Growth” value (MCF7; Log 10 Concentration −7.9) was 99%. The “Mean Optical Densities” value (MCF7; Log 10 Concentration −8.9) was 2.647, the “Percent Growth” value (MCF7; Log 10 Concentration −8.9) was 100% and the TGI (MDA-MB-435) was 3.10E−06. The “Mean Optical Densities” value (MDA-MB-435; Log 10 Concentration −4.9) was 0.021, the “Percent Growth” value (MDA-MB-435; Log 10 Concentration −4.9) was −62% and the “Mean Optical Densities” value (MDA-MB-435; Log 10 Concentration −5.9) was 0.631. For the same substance, the “Percent Growth” value (MDA-MB-435; Log 10 Concentration −5.9) was 40%, the “Mean Optical Densities” value (MDA-MB-435; Log 10 Concentration −6.9) was 0.865 and the “Percent Growth” value (MDA-MB-435; Log 10 Concentration −6.9) was 56%. For the same substance, the “Mean Optical Densities” value (MDA-MB-435; Log 10 Concentration −7.9) was 1.470, the “Percent Growth” value (MDA-MB-435; Log 10 Concentration −7.9) was 98% and the “Mean Optical Densities” value (MDA-MB-435; Log 10 Concentration −8.9) was 1.276. For the same substance, the “Percent Growth” value (MDA-MB-435; Log 10 Concentration −8.9) was 85%, the TGI (NCI/ADR-RIS) was greater than 1.26E−05 and the “Mean Optical Densities” value (NCI/ADR-RIS; Log 10 Concentration −4.9) was 0.072. For the same substance, the “Percent Growth” value (NCI/ADR-RIS; Log 10 Concentration −4.9) was 1%, the “Mean Optical Densities” value (NCI/ADR-RIS; Log 10 Concentration −5.9) was 1.319 and the “Percent Growth” value (NCI/ADR-RIS; Log 10 Concentration −5.9) was 56%. For the same substance, the “Mean Optical Densities” value (NCI/ADR-RIS; Log 10 Concentration −6.9) was 1.951, the “Percent Growth” value (NCI/ADR-RIS; Log 10 Concentration −6.9) was 84% and the “Mean Optical Densities” value (NCI/ADR-RIS; Log 10 Concentration −7.9) was 2.253. The “Percent Growth” value (NCI/ADR-RIS; Log 10 Concentration −7.9) was 98%, the “Mean Optical Densities” value (NCI/ADR-RIS; Log 10 Concentration −8.9) was 2.075 and the “Percent Growth” value (NCI/ADR-RIS; Log 10 Concentration −8.9) was 90%. It also gave a CC50 (NCI/ADR-RIS; [1]) greater than 12.6 µM.
